Test results published in the supplement of paper PMC11208160.

Assay: recombinant barcode read abundance after kanamycin selection (control-corrected) (log10(CPM+1)); higher = more efficient recombination; sequences stand for … in AGTGCAGAGAAAATCGGCCAGTTTTCTCTGCCTGCAGTCCGCATGCCGT…AGATTTATGCAGCGGACTGCCTTTCTCCCAAAGTGATAAACCGGACAGTATCATGGACCGGTTTTCCCGGTAATCCGTATTTGCAAGGTTGGTTTCACT; site = the 11-nt target
Method in brief: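 The screen was pooled in E. coli and paired targets with IS621 bridge RNA target-binding loops. Recombination efficiency is taken from barcode counts per million at recombinant junctions, averaged and adjusted against the control. Values, in the form log10(CPM+1), come from duplicate plating on chloramphenicol/ampicillin LB agar or on chloramphenicol/ampicillin/kanamycin with 0.1 mM IPTG.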
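Also: IS621 recombinase and bridge RNA in Escherichia coli cells.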

Sequence | recombinant barcode read abundance (log10)
GAAAATCCTTGGGTTCTAACCTGTTGCCT (site GAAATTCCTAG) | 0.297
GAAACGGCTTGGGTTCTAACCTGTTGCCT (site GAAAAGGCTAG) | 0.0884
GAAACGGCTTGGGTTCTAACCTGTTGCCT (site GAAACGGCTAG) | 0.091
GAAACGGCTTGGGTTCTAACCTGTTGCCT (site GAAAGGGCTAG) | 0.0962
GAAACGGCTTGGGTTCTAACCTGTTGCCT (site GAAATGGCTAG) | 0.323
GAAAGTTCTTGGGTTCTAACCTGTTGCCT (site GAAAGTTCTAG) | 1.15
GAAAGTTCTTGGGTTCTAACCTGTTGCCT (site GCAAGTTCTAG) | 0.0711
GAAAGTTCTTGGGTTCTAACCTGTTGCCT (site GGAAGTTCTAG) | 0.109
GAAAGTTCTTGGGTTCTAACCTGTTGCCT (site GTAAGTTCTAG) | 0.153
GAAATGGCTTGGGTTCTAACCTGTTGCCT (site GAAAAGGCTAG) | 0.0553
GAAATGGCTTGGGTTCTAACCTGTTGCCT (site GAAACGGCTAG) | 0.237
GAAATGGCTTGGGTTCTAACCTGTTGCCT (site GAAAGGGCTAG) | 0.108
GAAATGGCTTGGGTTCTAACCTGTTGCCT (site GAAATGGCTAG) | 0.309
GAACACACTTGGGTTCTAACCTGTTGCCG (site GAACACACTCG) | 1.56
GAACACACTTGGGTTCTAACCTGTTGCCG (site GCACACACTCA) | 0.794
GAACACTCTTGGGTTCTAACCTGTTGCTG (site GAACACTCTCA) | 2.09
GAACACTCTTGGGTTCTAACCTGTTGCTG (site TAACACTCTAA) | 0.113
GAACCTACTTGGGTTCTAACCTGTTGCCA (site GAACCTACTTG) | 1.16
GAACCTACTTGGGTTCTAACCTGTTGCCA (site GGACCTACTTG) | 0.0691
GAACTGCCTTGGGTTCTAACCTGTTGCTT (site CCTGACTCTGT) | 0.00853
GAACTGCCTTGGGTTCTAACCTGTTGCTT (site GAACTGCCTAA) | 1.35
GAAGAGTCTTGGGTTCTAACCTGTTGCCT (site GAAGAGTCTAG) | 2.11

Sequence | recombinant barcode read abundance (log10)
GAAGAGTCTTGGGTTCTAACCTGTTGCCT (site GCAGAGTCTAG) | 0.0703
GAAGAGTCTTGGGTTCTAACCTGTTGCCT (site GGAGAGTCTAG) | 0.233
GAAGAGTCTTGGGTTCTAACCTGTTGCCT (site GTAGAGTCTAG) | 1.29
GAAGCGCCTTGGGTTCTAACCTGTTGCCT (site GAAGAGCCTAG) | 0.0683
GAAGCGCCTTGGGTTCTAACCTGTTGCCT (site GAAGCGCCTAG) | 1.42
GAAGCGCCTTGGGTTCTAACCTGTTGCCT (site GAAGGGCCTAG) | 0.0832
GAAGCGCCTTGGGTTCTAACCTGTTGCCT (site GAAGTGCCTAG) | 0.397
GAAGCTACTTGGGTTCTAACCTGTTGCGT (site GAAGCTACTAC) | 1.84
GAAGCTACTTGGGTTCTAACCTGTTGCGT (site GATGCTACTCC) | 0.0227
GAATCAACTTGGGTTCTAACCTGTTGCTT (site GAATCAACTAA) | 0.0878
GAATCAACTTGGGTTCTAACCTGTTGCTT (site GACTCGACTAA) | 0.119
GAATGTTCTTGGGTTCTAACCTGTTGCTT (site GAATATTCTAA) | 0.0132
GAATGTTCTTGGGTTCTAACCTGTTGCTT (site GAATGTTCTAA) | 0.402
GAATTAGCTTGGGTTCTAACCTGTTGCGG (site GAATTAGCTCC) | 1.71
GAATTAGCTTGGGTTCTAACCTGTTGCGG (site GTATTAGCTCG) | 0.287
GACAGACCTTGGGTTCTAACCTGTTGCCT (site AACAGACCTAG) | 0.83
GACAGACCTTGGGTTCTAACCTGTTGCCT (site CACAGACCTAG) | 0.193
GACAGACCTTGGGTTCTAACCTGTTGCCT (site GACAGACCTAG) | 1.72
GACAGACCTTGGGTTCTAACCTGTTGCCT (site TACAGACCTAG) | 0.425
GACAGCCCTTGGGTTCTAACCTGTTGCTG (site GACAGCCCTCA) | 0.991
GACAGCCCTTGGGTTCTAACCTGTTGCTG (site GTCAGCCCTCA) | 0.0582
GACAGTACTTGGGTTCTAACCTGTTGCCT (site AACAGTACTAG) | 0.165

Sequence | recombinant barcode read abundance (log10)
GACAGTACTTGGGTTCTAACCTGTTGCCT (site CACAGTACTAG) | 0.306
GACAGTACTTGGGTTCTAACCTGTTGCCT (site GACAGTACTAG) | 0.714
GACAGTACTTGGGTTCTAACCTGTTGCCT (site TACAGTACTAG) | 0.79
GACATATCTTGGGTTCTAACCTGTTGCCA (site GACATATCTCA) | 0.337
GACATATCTTGGGTTCTAACCTGTTGCCA (site GACATATCTTG) | 0.204
GACATATCTTGGGTTCTAACCTGTTGCTT (site ACTGGTCCTCC) | 0.0369
GACATATCTTGGGTTCTAACCTGTTGCTT (site GACATATCTAA) | 0.358
GACATTCCTTGGGTTCTAACCTGTTGCTT (site CTATGAACTTG) | 0.0749
GACATTCCTTGGGTTCTAACCTGTTGCTT (site GACATTCCTAA) | 0.21
GACCTACCTTGGGTTCTAACCTGTTGCCT (site GACATACCTAG) | 0.0646
GACCTACCTTGGGTTCTAACCTGTTGCCT (site GACCTACCTAG) | 1.8
GACCTACCTTGGGTTCTAACCTGTTGCCT (site GACGTACCTAG) | 0.27
GACCTACCTTGGGTTCTAACCTGTTGCCT (site GACTTACCTAG) | 0.359
GACCTGACTTGGGTTCTAACCTGTTGCCA (site GACCTGACTTG) | 0.463
GACCTGACTTGGGTTCTAACCTGTTGCCA (site GACCTGGCTCG) | 0.128
GACGAGTCTTGGGTTCTAACCTGTTGCTA (site GACGAGTCTTA) | 1.01
GACGAGTCTTGGGTTCTAACCTGTTGCTA (site GGCGAGTCTTA) | 0.154
GACGGACCTTGGGTTCTAACCTGTTGCAT (site GACGGACCTAT) | 2.13
GACGGACCTTGGGTTCTAACCTGTTGCAT (site TGAAAGACTCG) | 0.114
GACGGACCTTGGGTTCTAACCTGTTGCTT (site GACGGACCTAA) | 0.832
GACGGACCTTGGGTTCTAACCTGTTGCTT (site GATGGCCCTAA) | 0.191
GACGGAGCTTGGGTTCTAACCTGTTGCTG (site GACGGAGCTCA) | 1.89

Sequence | recombinant barcode read abundance (log10)
GACGGAGCTTGGGTTCTAACCTGTTGCTG (site GACGGGGCTCT) | 0.224
GACGGATCTTGGGTTCTAACCTGTTGCTT (site GACGGATCTAA) | 0.557
GACGGATCTTGGGTTCTAACCTGTTGCTT (site GACGGATCTAC) | 0.162
GACGGATCTTGGGTTCTAACCTGTTGCTT (site GACGGATCTAG) | 0.197
GACGGATCTTGGGTTCTAACCTGTTGCTT (site GACGGATCTAT) | 0.15
GACTCTCCTTGGGTTCTAACCTGTTGCCT (site GACTCTCCTAA) | 0.21
GACTCTCCTTGGGTTCTAACCTGTTGCCT (site GACTCTCCTAC) | 0.0378
GACTCTCCTTGGGTTCTAACCTGTTGCCT (site GACTCTCCTAG) | 0.0776
GACTCTCCTTGGGTTCTAACCTGTTGCCT (site GACTCTCCTAT) | 0.191
GACTGGCCTTGGGTTCTAACCTGTTGCAG (site ATGGACACTAC) | 0.0143
GACTGGCCTTGGGTTCTAACCTGTTGCAG (site GACTGGCCTCT) | 0.862
GACTTAACTTGGGTTCTAACCTGTTGCTT (site CCTAAGTCTTG) | 0.0154
GACTTAACTTGGGTTCTAACCTGTTGCTT (site GACTTAACTAA) | 0.48
GAGAATACTTGGGTTCTAACCTGTTGCGT (site AAGAATACTAG) | 0.0615
GAGAATACTTGGGTTCTAACCTGTTGCGT (site GAGAATACTAC) | 2.41
GAGAATCCTTGGGTTCTAACCTGTTGCGT (site GAGAATCCTAC) | 2.49
GAGAATCCTTGGGTTCTAACCTGTTGCGT (site GAGTACCCTAC) | 0.0692
GAGACAACTTGGGTTCTAACCTGTTGCCT (site GAGACAACTAG) | 0.173
GAGACAACTTGGGTTCTAACCTGTTGCCT (site GGGACAGCTAG) | 0.303
GAGACGACTTGGGTTCTAACCTGTTGCCG (site GAGACGACTCG) | 1.61
